Measured values: EP4624465A1, “COMPOUND SERVING AS DDR1 KINASE INHIBITOR, AND MEDICINE” (Nippon Shinyaku Co., Ltd., priority 2022, dated 2024)
Where a name gives a salt, the structure may show the parent alone.

Target: DDR1 kinase (Homo sapiens, UniProt Q08345)
Experiment: Evaluation of DDR1 kinase inhibition (LANCE Ultra TR-FRET kinase assay)
Type: biochemical
Set-up: purchased Carna Biosciences 08-113
Settings: DDR1 protein 0.5 nM, LANCE Ultra ULight-poly GAT substrate, 2 hours at room temperature, duplicate; read-out: DDR-1 IC50

DDR1 kinase, sequence (Q08345 19-876 isoform Q08345-2 limits assumed): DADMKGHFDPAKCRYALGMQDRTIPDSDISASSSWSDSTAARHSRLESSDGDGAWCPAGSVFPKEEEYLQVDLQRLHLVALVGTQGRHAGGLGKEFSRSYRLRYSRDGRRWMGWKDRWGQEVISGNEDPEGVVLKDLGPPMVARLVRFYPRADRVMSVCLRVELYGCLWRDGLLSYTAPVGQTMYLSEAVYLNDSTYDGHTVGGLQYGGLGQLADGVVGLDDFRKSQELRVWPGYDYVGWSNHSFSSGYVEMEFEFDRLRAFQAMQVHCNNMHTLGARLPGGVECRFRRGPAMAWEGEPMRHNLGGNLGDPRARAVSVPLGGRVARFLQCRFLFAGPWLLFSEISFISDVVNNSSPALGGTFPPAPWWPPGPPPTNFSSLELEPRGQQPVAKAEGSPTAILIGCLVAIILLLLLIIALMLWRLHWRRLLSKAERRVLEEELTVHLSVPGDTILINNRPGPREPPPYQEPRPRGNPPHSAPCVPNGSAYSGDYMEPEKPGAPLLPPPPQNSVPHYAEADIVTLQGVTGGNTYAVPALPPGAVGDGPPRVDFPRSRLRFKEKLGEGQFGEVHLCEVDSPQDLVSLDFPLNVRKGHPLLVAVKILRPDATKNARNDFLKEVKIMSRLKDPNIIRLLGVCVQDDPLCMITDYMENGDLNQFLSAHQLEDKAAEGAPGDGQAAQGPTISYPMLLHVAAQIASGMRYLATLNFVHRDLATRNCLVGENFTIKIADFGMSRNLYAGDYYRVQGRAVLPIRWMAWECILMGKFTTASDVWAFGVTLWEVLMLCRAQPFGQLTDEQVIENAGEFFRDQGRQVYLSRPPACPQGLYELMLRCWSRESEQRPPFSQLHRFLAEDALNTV

| IC50 [nM] | Structure (SMILES) |
| --- | --- |
| 56 | Nc1nccc(C(=O)N2CC(c3nn(CC(=O)N4CCO[C@@H](C(F)(F)F)C4)c4ccccc34)C2)n1 [Compound E-215, 2-{3-[1-(2-aminopyrimidine-4-carbonyl)azetidin-3-yl]-1H-indazol-1-yl}-1-[(2R)-2-(trifluoromethyl)morpholin-4-yl]ethan-1-one] |
| 110 | Cc1nccc2c1c(C1CN(C(=O)c3ccnc(NC4CC4)c3)C1)nn2CC(=O)N1CCC[C@H]1C(F)(F)F [Compound E-93, 2-(3-{1-[2-(cyclopropylamino)pyridine-4-carbonyl]azetidin-3-yl}-4-methyl-1H-pyrazolo[4,3-c]pyridin-1-yl)-1-[(2S)-2-(trifluoromethyl)pyrrolidin-1-yl]ethan-1-one] |
| 320 | O=C(C1CCOCC1)N1CC(c2nn(CC(=O)N3CCC[C@H]3C(F)(F)F)c3cc(F)cc(F)c23)C1 [Compound E-162, 2-{4,6-difluoro-3-[1-(oxane-4-carbonyl)azetidin-3-yl]-1H-indazol-1-yl}-1-[(2S)-2-(trifluoromethyl)pyrrolidin-1-yl]ethan-1-one] |
| 14 | Cc1ccc2c(c1)c(C1CN(C(=O)c3ccnc(N)n3)C1)nn2CC(=O)N(C)CC(F)(F)F [Compound E-288, 2-{3-[1-(2-aminopyrimidine-4-carbonyl)azetidin-3-yl]-5-methyl-1H-indazol-1-yl}-N-methyl-N-(2,2,2-trifluoroethyl)acetamide] |
| 3.3 | Nc1cc(C(=O)N2CC(c3nn(CC(=O)NC45CC(C4)C5)c4cccc(F)c34)C2)ccn1 [Compound E-239, 2-{3-[1-(2-aminopyridine-4-carbonyl)azetidin-3-yl]-4-fluoro-1H-indazol-1-yl}-N-{bicyclo[1.1.1]pentan-1-yl}acetamide] |
| 110 | Nc1cc(C(=O)N2CCC(c3nn(Cc4ccc(C(F)(F)F)nc4)c4cccc(F)c34)CC2)ccn1 [Compound E-134, 4-[4-(4-fluoro-1-([6-(trifluoromethyl)pyridin-3-yl]methyl)-1H-indazol-3-yl)piperidine-1-carbonyl]pyridin-2-amine] |
| 45 | CN(CC(F)(F)F)C(=O)Cn1nc(C2CN(C(=O)c3ccnc(N)n3)C2)c2c(F)cc(F)cc21 [Compound E-289, 2-{3-[1-(2-aminopyrimidine-4-carbonyl)azetidin-3-yl]-4,6-difluoro-1H-indazol-1-yl)-N-methyl-N-(2,2,2-trifluoroethyl)acetamide] |
| 6.2 | CC(C)N(C(=O)Cn1nc(C2CN(C(=O)c3cc(N)ncc3F)C2)c2ccccc21)C(C)C [Compound E-267, 2-{3-[1-(2-amino-5-fluoropyridine-4-carbonyl)azetidin-3-yl]-1H-indazol-1-yl}-N,N-bis(propan-2-yl)acetamide] |
| 160 | O=C(Cn1nc(C2CN(C(=O)c3ccnc(NC4COC4)c3)C2)c2c(F)cc(F)cc21)NCC(F)(F)F [Compound E-32, 2-[4,6-difluoro-3-(1-{2-[(oxetan-3-yl)amino]pyridine-4-carbonyl}azetidin-3-yl)-1H-indazol-1-yl]-N-(2,2,2-trifluoroethyl)acetamide] |
| 0.3 | Nc1cc(C(=O)N2CC(c3nn(Cc4noc(C5(C(F)(F)F)CC5)n4)c4cccc(F)c34)C2)ccn1 [Compound E-147] |
| 2.4 | Nc1cc(C(=O)N2CC(c3nn(CC(=O)N4CCC[C@H]4C(F)(F)F)c4cc(F)cc(F)c34)C2)c(F)cn1 [Compound E-155] |
| 350 | Nc1cc(C(=O)N2CC(c3nn(CC4CN(c5ccccc5)C4)c4cc(F)cc(F)c34)C2)ccn1 [Compound E-157, 4-(3-{4,6-difluoro-1-[(1-phenylazetidin-3-yl)methyl)-1H-indazol-3-yl}azetidine-1-carbonyl)pyridin-2-amine] |
| 9 | Nc1cc(C(=O)N2CC(c3nn(CC(=O)N4CCC[C@H]4C(F)(F)F)c4c3CC(F)(F)CC4)C2)c(F)cn1 [Compound E-25] |
| 9.3 | Nc1cc(C(=O)N2CC(c3nn(CC(=O)NCC(F)(F)F)c4cccc(Cl)c34)C2)ccn1 [Compound E-62, 2-{3-[1-(2-aminopyridine-4-carbonyl)azetidin-3-yl}-4-chloro-1H-indazol-1-yl}-N-(2,2,2-trifluoroethyl)acetamide] |
| 350 | Nc1cc(C(=O)N2CC(c3nn(Cc4ccc(C(F)(F)F)cn4)c4cncc(F)c34)C2)ccn1 [Compound E-150] |
| 5 | Nc1nccc(C(=O)N2CC(c3nn(CC(=O)N4CCC[C@H]4C(F)(F)F)c4cc(F)ccc34)C2)n1 [Compound E-286, 2-{3-[1-(2-aminopyrimidine-4-carbonyl)azetidin-3-yl]-6-fluoro-1H-indazol-1-yl}-1-[(2S)-2-(trifluoromethyl)pyrrolidin-1-yl]ethan-1-one] |
| 150 | O=C(c1cn[nH]c1C(F)(F)F)N1CC(c2nn(CC(=O)N3CCC[C@H]3C(F)(F)F)c3cc(F)cc(F)c23)C1 [Compound E-166, 2-(4,6-difluoro-3-{1-[5-(trifluoromethyl)-1H-pyrazole-4-carbonyl]azetidin-3-yl}-1H-indazol-1-yl)-1-[(2S)-2-(trifluoromethyl)pyrrolidin-1-yl]ethan-1-one] |

| IC50 [nM] | Structure (SMILES) |
| --- | --- |
| 3 | Nc1nccc(C(=O)N2CC(c3nn(CC(=O)N4CCO[C@@H](C(F)(F)F)C4)c4cc(F)cc(F)c34)C2)c1F [Compound E-184, 2-{3-[1-(2-amino-3-fluoropyridine-4-carbonyl)azetidin-3-yl]-4,6-difluoro-1H-indazol-1-yl}-1-[(2R)-2-(trifluoromethyl)morpholin-4-yl]ethan-1-one p-toluenesulfonate] |
| 1.9 | Nc1cc(C(=O)N2CC(c3nn(Cc4noc(-c5ccccc5F)n4)c4cccc(F)c34)C2)ccn1 [Compound E-148, 4-[3-(4-fluoro-1-i[5-(2-fluorophenyl)-1,2,4-oxadiazol-3-yl]methyl}-1H-indazol-3-yl)azetidine-1-carbonyllpyridin-2-amine] |
| 160 | Nc1cc(C(=O)N2CC(c3nn(CC(=O)N4CCC[C@H]4CO)c4ccccc34)C2)ccn1 [Compound E-219, 2-{3-[1-(2-aminopyridine-4-carbonyl)azetidin-3-yl]-1H-indazol-1-yl]-1-[(2S)-2-(hydroxymethyl)pyrrolidin-1-yl]ethan-1-one] |
| 14 | CC(C(=O)N1CCC[C@H]1C(F)(F)F)n1nc(C2CN(C(=O)c3ccnc(N)c3)C2)c2c(F)cc(F)cc21 (stereo partly drawn) [Compound E-103, 2-{3-[1-(2-aminopyridine-4-carbonyl)azetidin-3-yl]-4,6-difluoro-1H-indazol-1-yl}-1-[(2S)-2-(trifluoromethyl)pyrrolidin-1-yl}propane-1-one hydrochloride] |
| 140 | Nc1cc(C(=O)N2CC(c3nn(Cc4noc(-c5ccc(F)cn5)n4)c4cccc(F)c34)C2)ccn1 [Compound E-153, 4-{3-(4-fluoro-1-{[5-(5-fluoropyridin-2-yl)-1,2,4-oxadiazol-3-yl]methyl}-1H-indazol-3-yl)azetidine-1-carbonyl]pyridin-2-amine] |
| 1.4 | Nc1cc(C(=O)N2CC(c3nn(CC(=O)N4CCC[C@H]4C(F)(F)F)c4ccc(F)c(Cl)c34)C2)ccn1 [Compound E-144, 2-{3-[1-(2-aminopyridine-4-carbonyl)azetidin-3-yl]-4-chloro-5-fluoro-1H-indazol-1-yl}-1-[(2S)-2-(trifluoromethyl)pyrrolidin-1-yl]ethan-1-one] |
| 1.2 | Nc1cc(C(=O)N2CC(c3nn(CC(=O)N4CCOc5ccccc54)c4cc(F)cc(F)c34)C2)ccn1 [Compound E-159, 2-{3-{1-(2-aminopyridine-4-carbonyl)azetidin-3-yl]-4,6-difluoro-1H-indazol-1-yl]-1-(3,4-dihydro-2H-1,4-benzoxazin-4-yl)ethan-1-one] |
| 84 | Nc1cc(C(=O)N2CC(c3nn(Cc4nnc(-c5ccc(F)cc5)o4)c4cccc(F)c34)C2)ccn1 [Compound E-20, 4-[3-(4-fluoro-1-{[5-(4-fluorophenyl)-1,3,4-oxadiazol-2-yl]methyl}-1H-indazol-3-yl)azetidine-1-carbonyl]pyridin-2-amine] |
| 500 | Nc1cc(C(=O)N2CC(c3nn(CC(=O)NC4CCOCC4)c4ccccc34)C2)ccn1 [Compound E-233, 2-{3-[1-(2-aminopyridine-4-carbonyl)azetidin-3-yl]-1H-indazol-1-yl}-N-(oxan-4-yl)acetamide] |
| 270 | Nc1cc(C(=O)N2CC(c3nn(CC(=O)N4CCC[C@@H]4CO)c4cc(F)cc(F)c34)C2)ccn1 [Compound E-36, 2-{3-[1-(2-aminopyridine-4-carbonyl)azetidin-3-yl]-4,6-difluoro-1H-indazol-1-yl}-1-[(2R)-2-(hydroxymethyl)pyrrolidin-1-yl]ethan-1-one] |
| 70 | Cc1nc(N)sc1C(=O)N1CC(c2nn(CC(=O)N3CCO[C@@H](C(F)(F)F)C3)c3cc(F)cc(F)c23)C1 [Compound E-173, 2-(3-[1-(2-amino-4-methyl-1,3-thiazole-5-carbonyl)azetidin-3-yl]-4,6-difluoro-1H-indazol-1-yl}-1-[(2R)-2-(trifluoromethyl)morpholin-4-yl]ethan-1-one] |
| 2 | CN(CC1CC(F)(F)C1)C(=O)Cn1nc(C2CN(C(=O)c3cc(N)ncc3F)C2)c2ccccc21 [Compound E-256, 2-{3-[1-(2-amino-5-fluoropyridine-4-carbonyl)azetidin-3-yl]-1H-indazol-1-yl]-N-[(3,3-difluorocyclobutyl)methyl]-N-methylacetamide] |
| 150 | Cc1c(C(=O)N2CC(c3nn(CC(=O)N4CCC[C@H]4C(F)(F)F)c4ccnc(C)c34)C2)ccnc1N [Compound E-94] |
| 140 | Cc1nc(N)sc1C(=O)N1CC(c2nn(CC(=O)N3CCC[C@H]3C(F)(F)F)c3cccnc23)C1 [Compound E-122] |
| 3.5 | CCN(CC(F)(F)F)C(=O)Cn1nc(C2CN(C(=O)c3cc(N)ncc3F)C2)c2ccccc21 [Compound E-249, 2-{3-[1-(2-amino-5-fluoropyridine-4-carbonyl)azetidin-3-yl]-1H-indazol-1-yl}-N-ethyl-N-(2,2,2-trifluoroethyl)acetamide] |
| 38 | Nc1cc(C(=O)N2CC(c3nn(CC(=O)N4CCC5(COC5)C4)c4ccccc34)C2)c(F)cn1 [Compound E-232, 2-{3-[1-(2-amino-5-fluoropyridine-4-carbonyl)azetidin-3-yl]-1H-indazol-1-yl}-1-{2-oxa-6-azaspiro[3.4]octan-6-yl}ethan-1-one] |
